Laboratory results from PubChem BioAssay (NCI).
Several values for one entry are separate records, joined by “and”; a condition that tells them apart may be missing. Identical values can stand only once.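 Method: 48-hour compound exposure of cells in 96-well plates, five concentrations, linear interpolation of endpoints. The concentration for 50% growth inhibition is given as GI50. TGI: concentration producing complete growth inhibition.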

Key:
Test in all cases: NCI anticancer screen, dose series, 48 h
[1] = test system: ACHN renal
[2] = test system: BT-549 breast
[3] = test system: HT29 colon
[4] = test system: KM12 colon
[5] = test system: MCF7 breast
[6] = test system: SF-268 CNS
[7] = test system: SF-539 CNS
[8] = test system: SW-620 colon

Compound	TGI [1]	TGI [2]	TGI [3]	TGI [4]	TGI [5]	TGI [6]	TGI [7]	TGI [8]	GI50 [1]	GI50 [2]	GI50 [3]	GI50 [4]	GI50 [5]	GI50 [6]	GI50 [7]	GI50 [8]
CC(C)CCC[C@@H](C)[C@H]1CC[C@H]2[C@@H]3CC[C@H]4C[C@@H](CCC=C(c5cc(Cl)c(O)c(C(=O)O)c5)c5cc(Cl)c(O)c(C(=O)O)c5)CC[C@]4(C)[C@H]3CC[C@]12C	> 100 µM	> 100 µM	> 100 µM	> 100 µM	> 100 µM	> 100 µM	> 100 µM	> 100 µM	–	–	–	–	–	–	–	–
COC(=O)C1C(O)CCC2CN3CCc4c([nH]c5ccccc45)C3CC21 (stereo not given)	> 100 µM	> 100 µM	> 100 µM	> 100 µM	> 100 µM	> 100 µM	> 100 µM	> 100 µM	> 100 µM	–	–	–	–	–	–	–
COc1ccc(/C=C/C(=O)/C=C/c2cc3ccccc3[nH]c2=O)cc1	15.5 µM	6.19 µM	5.94 µM	6.95 µM	11.1 µM	11.4 µM	7.13 µM	4.56 µM	3.81 µM	2.25 µM	2.47 µM	2.62 µM	2.11 µM	3.11 µM	2.63 µM	1.89 µM
COc1ccc(-c2ccncc2)cc1C(N)=O	> 25 µM	> 25 µM	> 25 µM	> 25 µM	> 25 µM	> 25 µM	> 25 µM	> 25 µM	> 25 µM	> 25 µM	> 25 µM	> 25 µM	> 25 µM	> 25 µM	> 25 µM	> 25 µM
Cc1[nH]nc(C(F)(F)F)c1N=NN(C)C	18.9 µM	24.9 µM	34.1 µM	29.3 µM	14.6 µM	24.1 µM	20.7 µM	> 100 µM	–	–	–	–	–	–	–	–
COc1ccc(NC(=O)CSC2=C(Nc3cccc(Br)c3)C(=O)N(Cc3ccccc3)C2=O)cc1Cl	> 100 µM	> 100 µM	> 100 µM	> 100 µM	> 100 µM	> 100 µM	> 100 µM	> 100 µM	> 100 µM	51.6 µM	> 100 µM	65.5 µM	15.9 µM	21.5 µM	> 100 µM	> 100 µM
O=[N+]([O-])c1cc(Cl)c2[nH]c3c(Cl)cc([N+](=O)[O-])cc3c2c1	–	5.34 µM	> 100 µM	> 100 µM	> 100 µM	> 100 µM	> 92.2 µM	> 100 µM	0.362 µM	0.326 µM	0.431 µM	0.354 µM	0.284 µM	0.403 µM	0.653 µM	0.576 µM
COc1ccc2c(=O)cc(-c3ccccc3)[nH]c2c1	> 100 µM	> 27.7 µM	> 100 µM	> 100 µM	> 100 µM	> 100 µM	3.37 µM	> 100 µM	4.22 µM	0.56 µM	0.379 µM	0.405 µM	0.387 µM	1.28 µM	0.584 µM	0.444 µM
COc1cc(OC)c(C(=O)/C=C/c2cc3c(cc2OCc2ccccc2)OC(C)(C)CC3)cc1CC=C(C)C	14.5 µM	12.3 µM	8.92 µM	8.63 µM	11.2 µM	15.2 µM	8.8 µM	10.2 µM	5.42 µM	4.2 µM	3.57 µM	3.85 µM	3.08 µM	4.82 µM	4.53 µM	4.31 µM
CN(CCCCCl)P(=O)(OCCS(=O)(=O)CC(NC(=O)CCC(N)C(=O)O)C(=O)NC(C(=O)O)c1ccccc1)OCC1OC(n2ccc(N)nc2=O)C(F)(F)C1O (stereo not given)	> 33.8 µM	> 100 µM	> 100 µM	> 100 µM	> 100 µM	> 100 µM	0.689 µM	> 100 µM	–	0.783 µM	0.586 µM	14.6 µM	–	0.337 µM	0.0338 µM	1.44 µM
CC(C)c1cnn2c(NCc3ccccc3)cc(NC[C@H]3CCNC[C@@H]3O)nc12	10.5 µM and 9.73 µM	4.4 µM and 3.08 µM	10.3 µM and 5.73 µM	3.31 µM and 2.5 µM	4.83 µM and 4.03 µM	4.63 µM and 2.72 µM	1.68 µM and 1.43 µM	10.4 µM and 11 µM	0.833 µM and 1.55 µM	1.81 µM and 1.27 µM	0.285 µM and 0.369 µM	0.353 µM and 0.407 µM	0.13 µM and 0.186 µM	0.402 µM and 0.648 µM	0.292 µM and 0.436 µM	0.239 µM and 0.432 µM
CCOC(=O)c1cc2cc3c4c(c2oc1=O)CCCN4CCC3	> 100 µM	> 100 µM	> 100 µM	61.9 µM	56.3 µM	71.3 µM	58.2 µM	> 100 µM	–	–	–	–	–	–	–	–
O=C(/C=C/C12c3ccccc3C(c3ccccc31)C1C(=O)NC(=O)C12)c1ccc(Cl)cc1Cl (stereo not given)	3.15 µM	3.27 µM	4.41 µM	3.43 µM	3.79 µM	3.44 µM	2.96 µM	4.58 µM	1.76 µM	1.66 µM	2.02 µM	1.76 µM	1.72 µM	1.79 µM	1.59 µM	2.19 µM
COC(=O)c1cc2c3ccccc3n3c(=O)c4cc5ccc(N(S(=O)(=O)c6ccc(C)cc6)S(=O)(=O)c6ccc(C)cc6)cc5nc4c(n1)c23	82.6 µM	> 100 µM	> 100 µM	> 100 µM	> 100 µM	> 100 µM	> 100 µM	> 100 µM	17.2 µM	35.7 µM	> 100 µM	> 100 µM	> 100 µM	39.2 µM	25.4 µM	> 100 µM
O=C1c2ccccc2-[n+]2ccc3c([nH]c4ccccc43)c21	4.08 µM	4.92 µM	1.78 µM	0.636 µM	0.834 µM	1.3 µM	1.45 µM	2.72 µM	–	–	–	–	–	–	–	–
Nc1nonc1-c1nc2cnccc2n1C1CC1	> 25 µM	19.2 µM	> 25 µM	> 20.9 µM	> 17.3 µM	> 25 µM	10.1 µM	> 25 µM	6.25 µM	3.85 µM	5.87 µM	6.46 µM	6.05 µM	4.98 µM	2.54 µM	5.42 µM
Cc1nc(-c2ccccc2)n2nc(NCCCN3CCOCC3)ncc12	> 25 µM	> 25 µM	> 25 µM	> 25 µM	> 25 µM	> 25 µM	> 25 µM	> 25 µM	10.4 µM	> 25 µM	> 25 µM	> 25 µM	> 25 µM	> 25 µM	> 25 µM	> 25 µM
